Data: US20250019705A1, “PHARMACEUTICAL COMPOSITION FOR PREVENTING OR TREATING TARGET CANCER INCLUDING BRCA-SPECIFIC siRNA AS ACTIVE INGREDIENT” (KOREA INSTITUTE OF SCIENCE AND TECHNOLOGY, priority 2023, published 2025)

Legend:
Format in all cases: cell-based, mouse
ID8 cells = assay: PARP inhibitor IC50 analysis through MTS assay in ID8 cells incubated with vSIRPα-siBRCA
Protocol: (§1) FIG. 9A, FIG. 9B, FIG. 9C, and FIG. 9D illustrate a result of treating ID8 cells incubated with vSIRPα-siBRCA with a PARP inhibitor (Olaparib or Talazoparib) and performing IC50 analysis through MTS assay.
(§2) Knockdown and knockout of BRCA genes were highly correlated with the efficacy of synthetic lethal cell death induction of the PARP inhibitor. Therefore, whether the PARP inhibitor, after silencing the expression of BRCA1/2, could induce apoptosis of tumor cells was required confirmation. BRCA1 and/or BRCA2 may be effectively knocked down by treating ID8 cells with the vSIRPα-siBRCA conjugates. Therefore ID8 cells were treated with the vSIRPα-siBRCA conjugates for 48 hours and then treated with Talazoparib at various concentrations for 72 hours.

[1] = tested on: BRCA1-deficient ID8 cells; assay: PARP inhibitor IC50 analysis through MTS assay in BRCA1-deficient ID8 cells with BRCA2 knockdown; settings: BRCA1-deficient ID8 cells with BRCA2 knocked down
Protocol: as §1, §2

phospho-H2AX (γH2AX) = assay: DNA damage analysis by flow cytometry after PARP inhibitor in BRCA silenced cells; settings: for γH2AX increase compared with control group: 0.01 μM Talazoparib
Protocol: The ID8 cells were dispensed in a 6-well plate at 2×10^5 cells/dish and incubated for 48 hours with PBS, vSIRPα-siBRCA1, vSIRPα-siBRCA2, and vSIRPα-siBRCA1/2. Subsequently, the cells were trypsinized and dispensed in a 6-well plate at 2×10^5 cells/dish, and treated with Olaparib or Talazoparib at a predetermined concentration for 24 to 48 hours.
Subsequently, the cells were detached with Trypsin-EDTA, blocked for 30 minutes using a PBS solution containing 1% FBS, and then a phospho-H2AX antibody was incubated for 2 hours. Thereafter, after PBS washing, flow cytometry was performed using a FACS device to measure phospho-H2AX antibody staining
To evaluate the level of PARP inhibitor-mediated DNA damage in BRCA gene-silenced cells, the expression levels of phospho-H2AX (γH2AX), a DNA damage marker, were measured by flow cytometry.
ID8 cells were treated with vSIRPα-siBRCA1 and vSIRPα-siBRCA2 alone or in combination, respectively, and after 48 hours, each cell type was treated with a PARP inhibitor, Talazoparib, and incubated for 48 hours.

[2] = BRCA1-knockdown (silenced) ID8 cells, vSIRPα-siBRCA 48 hours then PARP inhibitor 72 hours
[3] = BRCA1/2 silenced ID8 cells (vSIRPα-siBRCA1 and vSIRPα-BRCA2 together), 48 hours then PARP inhibitor 72 hours
[4] = BRCA2-knockdown (silenced) ID8 cells, vSIRPα-siBRCA 48 hours then PARP inhibitor 72 hours

| Structure (SMILES) | fold reduction of IC50 of PARP inhibitor vs BRCA normal-expressing (control) ID8 cells (ID8 cells; [2]) | fold reduction of IC50 of PARP inhibitor vs BRCA normal-expressing (control) ID8 cells (ID8 cells; [3]) | fold reduction of IC50 of PARP inhibitor vs BRCA normal-expressing (control) ID8 cells (ID8 cells; [4]) | fold reduction of IC50 of PARP inhibitor by BRCA2 knockdown [1] | γH2AX increase compared with control group (phospho-H2AX (γH2AX); BRCA1/2 silenced ID8 cells (both conjugates 48 hours)) [fold] | γH2AX increase compared with control group (phospho-H2AX (γH2AX); BRCA1 silenced ID8 cells (vSIRPα-siBRCA1 48 hours)) | γH2AX increase compared with control group (phospho-H2AX (γH2AX); BRCA2 silenced ID8 cells (vSIRPα-siBRCA2 48 hours)) [fold] | expression levels of γH2AX (phospho-H2AX (γH2AX); ID8-sgBRCA1/2 cells, Talazoparib 48 hours) |
| --- | --- | --- | --- | --- | --- | --- | --- | --- |
| O=C(c1cc(Cc2n[nH]c(=O)c3ccccc23)ccc1F)N1CCN(C(=O)C2CC2)CC1 [Olaparib] | about 3.76 fold | about 13.97 fold | about 2.77 fold |  |  |  |  |  |
| Cn1ncnc1[C@H]1c2n[nH]c(=O)c3cc(F)cc(c23)N[C@@H]1c1ccc(F)cc1 [Talazoparib] | 3.23 fold | 28.11 fold | 4.34 fold | about 3.6 fold | ~3.06 | about 1.32 fold | ~2.16 | significantly increased |
